Assay results from ChEMBL document CHEMBL3885881, “DrugMatrix”.

Columns and labels:
Rattus norvegicus [1] = species: Rattus norvegicus; assay: DrugMatrix - Regimen: Daily Repeat; format: toxicity, organism-based, Sprague-Dawley; design: regimen Daily Repeat, gender Male, age 6-8 weeks; conditions: in vivo, po, 75 mg/kg, route oral GAVAGE, dose level High, vehicle .5 % CMC
Rattus norvegicus [2] = species: Rattus norvegicus; format: toxicity, organism-based, Sprague-Dawley; conditions: in vivo, po, 75 mg/kg, 24 h, route oral GAVAGE, dose level High, time 1 day, vehicle .5 % CMC
Description: DrugMatrix - Regimen: Single

[3] = […], tissue Plasma, time 14 day

COc1ccc(C2CNC(=O)C2)cc1OC1CCCC1 (centres undefined) [ROLIPRAM]
URIC ACID (Rattus norvegicus [1]; 120 h, tissue Plasma, time 5 day): 1.3 mg/dL | ABSOLUTE BASOPHIL (Rattus norvegicus [1]; […], tissue Blood, time 14 day): 0 CELLS/uL | ABSOLUTE EOSINOPHIL (Rattus norvegicus [1]; […], tissue Blood, time 14 day): 252.2 CELLS/uL | ABSOLUTE LYMPHOCYTE (Rattus norvegicus [1]; […], tissue Blood, time 14 day): 9667.6 CELLS/uL | ABSOLUTE MONOCYTE (Rattus norvegicus [1]; […], tissue Blood, time 14 day): 605.6 CELLS/uL | ABSOLUTE SEGMENTED NEUTROPHIL (Rattus norvegicus [1]; […], tissue Blood, time 14 day): 4994.6 CELLS/uL | BASOPHIL (Rattus norvegicus [1]; […], tissue Blood, time 14 day): 0% | EOSINOPHIL (Rattus norvegicus [1]; […], tissue Blood, time 14 day): 1.6% | ERYTHROCYTE COUNT (Rattus norvegicus [1]; […], tissue Blood, time 14 day): 6.09 x10E6/uL | HEMATOCRIT (Rattus norvegicus [1]; […], tissue Blood, time 14 day): 35.84% | HEMOGLOBIN (Rattus norvegicus [1]; […], tissue Blood, time 14 day): 13.22 G/DL | LEUKOCYTE COUNT (Rattus norvegicus [1]; […], tissue Blood, time 14 day): 15.52 x10E3/uL | LYMPHOCYTE (Rattus norvegicus [1]; […], tissue Blood, time 14 day): 69.8% | MEAN CORPUSCULAR HEMOGLOBIN (Rattus norvegicus [1]; […], tissue Blood, time 14 day): 21.78 pg | MEAN CORPUSCULAR HEMOGLOBIN CONCENTRATION (Rattus norvegicus [1]; […], tissue Blood, time 14 day): 36.88 G/DL | MEAN CORPUSCULAR VOLUME (Rattus norvegicus [1]; […], tissue Blood, time 14 day): 59 fL | MONOCYTE (Rattus norvegicus [1]; […], tissue Blood, time 14 day): 3.4% | NEUTROPHIL (Rattus norvegicus [1]; […], tissue Blood, time 14 day): 25.2% | NUCLEATED RED BLOOD CELLS (Rattus norvegicus [1]; […], tissue Blood, time 14 day): 0 /100WBC | PLATELET COUNT (Rattus norvegicus [1]; […], tissue Blood, time 14 day): 1123.6 x10E3/uL | ALANINE AMINOTRANSFERASE (Rattus norvegicus [1]; [3]): 56 u/L | ALBUMIN (Rattus norvegicus [1]; [3]): 3.84 G/DL | ALKALINE PHOSPHATASE (Rattus norvegicus [1]; [3]): 286.6 u/L | ASPARTATE AMINOTRANSFERASE (Rattus norvegicus [1]; [3]): 76.6 u/L | BLOOD UREA NITROGEN (Rattus norvegicus [1]; [3]): 15.4 mg/dL | CARBON DIOXIDE (Rattus norvegicus [1]; [3]): 31.8 mmol/L | CHLORIDE (Rattus norvegicus [1]; [3]): 104 MEQ/L | CHOLESTEROL (Rattus norvegicus [1]; [3]): 55.8 mg/dL | CREATININE (Rattus norvegicus [1]; [3]): 0.19 mg/dL | GLUCOSE (Rattus norvegicus [1]; [3]): 131.8 mg/dL | LACTATE DEHYDROGENASE (Rattus norvegicus [1]; [3]): 80.4 u/L | LIPASE (Rattus norvegicus [1]; [3]): 9 u/L | PHOSPHORUS (Rattus norvegicus [1]; [3]): 9.08 mg/dL | POTASSIUM (Rattus norvegicus [1]; [3]): 5.55 MEQ/L | SODIUM (Rattus norvegicus [1]; [3]): 149.03 MEQ/L | TOTAL BILIRUBIN (Rattus norvegicus [1]; [3]): 0.16 mg/dL | TOTAL PROTEIN (Rattus norvegicus [1]; [3]): 5.98 G/DL | URIC ACID (Rattus norvegicus [1]; [3]): 0.64 mg/dL | ABSOLUTE EOSINOPHIL (Rattus norvegicus [2]; tissue Blood): 109.33 CELLS/uL | ABSOLUTE LYMPHOCYTE (Rattus norvegicus [2]; tissue Blood): 7018.33 CELLS/uL | ABSOLUTE MONOCYTE (Rattus norvegicus [2]; tissue Blood): 257 CELLS/uL | ABSOLUTE SEGMENTED NEUTROPHIL (Rattus norvegicus [2]; tissue Blood): 1082 CELLS/uL | BASOPHIL (Rattus norvegicus [2]; tissue Blood): 0% | EOSINOPHIL (Rattus norvegicus [2]; tissue Blood): 1.33% | ERYTHROCYTE COUNT (Rattus norvegicus [2]; tissue Blood): 5.95 x10E6/uL | HEMATOCRIT (Rattus norvegicus [2]; tissue Blood): 37% | HEMOGLOBIN (Rattus norvegicus [2]; tissue Blood): 13.5 G/DL | LEUKOCYTE COUNT (Rattus norvegicus [2]; tissue Blood): 8.47 x10E3/uL | LYMPHOCYTE (Rattus norvegicus [2]; tissue Blood): 83.33% | MEAN CORPUSCULAR HEMOGLOBIN (Rattus norvegicus [2]; tissue Blood): 22.7 pg | MEAN CORPUSCULAR HEMOGLOBIN CONCENTRATION (Rattus norvegicus [2]; tissue Blood): 36.47 G/DL | MEAN CORPUSCULAR VOLUME (Rattus norvegicus [2]; tissue Blood): 62.17 fL | MONOCYTE (Rattus norvegicus [2]; tissue Blood): 3% | NEUTROPHIL (Rattus norvegicus [2]; tissue Blood): 12.33% | NUCLEATED RED BLOOD CELLS (Rattus norvegicus [2]; tissue Blood): 0 /100WBC | PLATELET COUNT (Rattus norvegicus [2]; tissue Blood): 1249.33 x10E3/uL | ALANINE AMINOTRANSFERASE (Rattus norvegicus [2]; tissue Plasma): 29 u/L | ALBUMIN (Rattus norvegicus [2]; tissue Plasma): 4.47 G/DL | ALKALINE PHOSPHATASE (Rattus norvegicus [2]; tissue Plasma): 403.67 u/L | ASPARTATE AMINOTRANSFERASE (Rattus norvegicus [2]; tissue Plasma): 74.67 u/L | BLOOD UREA NITROGEN (Rattus norvegicus [2]; tissue Plasma): 13.33 mg/dL | CARBON DIOXIDE (Rattus norvegicus [2]; tissue Plasma): 34.67 mmol/L | CHLORIDE (Rattus norvegicus [2]; tissue Plasma): 103 MEQ/L | CHOLESTEROL (Rattus norvegicus [2]; tissue Plasma): 69.67 mg/dL | CREATININE (Rattus norvegicus [2]; tissue Plasma): 0.18 mg/dL | GLUCOSE (Rattus norvegicus [2]; tissue Plasma): 144.33 mg/dL | LACTATE DEHYDROGENASE (Rattus norvegicus [2]; tissue Plasma): 95.67 u/L | LIPASE (Rattus norvegicus [2]; tissue Plasma): 8.67 u/L | PHOSPHORUS (Rattus norvegicus [2]; tissue Plasma): 11.1 mg/dL | POTASSIUM (Rattus norvegicus [2]; tissue Plasma): 5.46 MEQ/L | SODIUM (Rattus norvegicus [2]; tissue Plasma): 151.33 MEQ/L | TOTAL BILIRUBIN (Rattus norvegicus [2]; tissue Plasma): 0.1 mg/dL | TOTAL PROTEIN (Rattus norvegicus [2]; tissue Plasma): 6.4 G/DL | URIC ACID (Rattus norvegicus [2]; tissue Plasma): 1.17 mg/dL
